Experimental data reported in US20100041642A1, “UREA INHIBITORS OF MAP KINASES” (LOCUS PHARMACEUTICALS, INC., priority 2008, published 2010).

Biological target: p38 (Homo sapiens, UniProt Q16539)
Assay: Protein Kinase Assay (33P incorporation from γ-[33P]ATP into GST-ATF-2)
Format: biochemical
Settings: 2 nM p38, preincubated 20 min at 30° C.; 10 uM cold ATP, 2 uM GST-ATF2, 70 min; read-out: ACT. (Activity), IC50 category in Protein Kinase Assay
Procedure, shortened: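 Compounds preincubated 20 min at 30 °C with 2 nM p38; reaction started with 2 uM GST-ATF-2 (aa 19-96) and 10 uM ATP plus γ-[33P]ATP, pH 7.5, 70 min at 30 °C, 2% DMSO. Phosphoric acid stop; 33P-labelled substrate captured on phosphocellulose and counted by scintillation.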

Sequence of p38 (Q16539 whole entry): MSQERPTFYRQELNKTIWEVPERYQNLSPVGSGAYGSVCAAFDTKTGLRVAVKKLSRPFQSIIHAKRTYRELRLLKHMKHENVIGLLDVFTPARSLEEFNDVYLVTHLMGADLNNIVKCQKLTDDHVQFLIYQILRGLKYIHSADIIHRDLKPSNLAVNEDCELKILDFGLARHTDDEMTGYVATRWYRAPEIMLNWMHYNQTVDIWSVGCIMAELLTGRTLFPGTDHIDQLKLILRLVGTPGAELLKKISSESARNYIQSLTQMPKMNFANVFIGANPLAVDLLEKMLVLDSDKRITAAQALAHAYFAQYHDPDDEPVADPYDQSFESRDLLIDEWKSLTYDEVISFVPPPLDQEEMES

Question: How did the IC50 turn out when Cc1ccc(-c2ccc(N3CCOCC3)nc2)cc1NC(=O)Nc1sc(C(C)(C)C)cc1C(=O)N1CCNC(=O)C1(C)C [1-(5-tert-butyl-3-(2,2-dimethyl-3-oxopiperazine-1-carbonyl)thiophen-2-yl)-3-(2-methyl-5-(6-morpholinopyridin-3-yl)phenyl)urea] was run?
Answer: < 100 nM

Question: How did the IC50 turn out when CCNC(=O)c1ccc(-c2cc(NC(=O)Nc3sc(C(C)(C)C)cc3C(=O)N3CCN(C)C(=O)C3(C)C)ccc2C)cn1 [5-(5-(3-(5-tert-butyl-3-(2,2,4-trimethyl-3-oxopiperazine-1-carbonyl)thiophen-2-yl)ureido)-2-methylphenyl)-N-ethylpyridine-2-carboxamide] was run?
Answer: < 100 nM

Question: With Cc1ccc(NC(=O)Nc2cc(C(C)(C)C)sc2C(=O)N2CCN(C)C(=O)C2(C)C)cc1-c1ccc(N2CCOCC2)nc1 [1-(5-tert-butyl-2-(2,2,4-trimethyl-3-oxopiperazine-1-carbonyl)thiophen-3-yl)-3-(4-methyl-3-(6-morpholinopyridin-3-yl)phenyl)urea] as the molecule, how does the IC50 read?
Answer: < 100 nM

Question: COCCOCC#Cc1cc(NC(=O)Nc2sc(C(C)(C)C)cc2C(=O)N2CCNC(=O)C2(C)C)ccc1C [1-(5-tert-butyl-3-(2,2-dimethyl-3-oxopiperazine-1-carbonyl)thiophen-2-yl)-3-(3-(3-(2-methoxyethoxy)prop-1-ynyl)-4-methylphenyl)urea] was tested. Which IC50 did it give?
Answer: < 100 nM

Question: How did the IC50 turn out when COc1ccc(-c2cc(NC(=O)Nc3sc(C(C)(C)C)cc3C(=O)N3CCN(C)C(=O)C3(C)C)c(F)cc2C)cn1 [1-(5-tert-butyl-3-(2,2,4-trimethyl-3-oxopiperazine-1-carbonyl)thiophen-2-yl)-3-(2-fluoro-5-(6-methoxypyridin-3-yl)-4-methylphenyl)urea] was run?
Answer: < 100 nM

Question: Which IC50 does the source give for Cc1ccc(NC(=O)Nc2sc(C(C)(C)C)cc2C(=O)N2CCNC(=O)C2(C)C)cc1-c1ccc(C(C)C)nc1 [1-(5-tert-butyl-3-(2,2-dimethyl-3-oxopiperazine-1-carbonyl)thiophen-2-yl)-3-(3-(6-isopropylpyridin-3-yl)-4-methylphenyl)urea] here?
Answer: < 100 nM

Question: CC(C)(C)c1cc(C(=O)N2CCNC(=O)C2(C)C)c(NC(=O)Nc2cccc(-c3cnco3)c2)s1 [1-(5-tert-butyl-3-(2,2-dimethyl-3-oxopiperazine-1-carbonyl)thiophen-2-yl)-3-(3-(oxazol-5-yl)phenyl)urea] was tested. Which IC50 did it give?
Answer: < 100 nM

Question: How did the IC50 turn out when Cc1ccc(NC(=O)Nc2sc(C(C)(C)C)cc2C(=O)N2CCN(C(=O)CN(C)C)CC2)cc1-c1cccnc1 [1-(5-tert-butyl-3-(4-(2-(dimethylamino)ethanoyl)piperazine-1-carbonyl)thiophen-2-yl)-3-(4-methyl-3-(pyridin-3-yl)phenyl)urea] was run?
Answer: < 1000 nM

Question: COc1ccc(-c2cc(NC(=O)Nc3sc(C(C)(C)C)cc3C(=O)N3CCN(C)C(=O)C3(C)C)ccc2C)cn1 [1-(5-tert-butyl-3-(2,2,4-trimethyl-3-oxopiperazine-1-carbonyl)thiophen-2-yl)-3-(3-(6-methoxypyridin-3-yl)-4-methylphenyl)urea] was tested. Which IC50 did it give?
Answer: < 100 nM

Question: With Cc1nnc(CN2CCN(C(=O)c3cc(C(C)(C)C)sc3NC(=O)Nc3ccc(C)c(-c4ccncc4)c3)C(C)(C)C2=O)o1 [1-(5-tert-butyl-3-(3,3-dimethyl-1-((5-methyl-1,3,4-oxadiazol-2-yl)methyl)-2-oxopiperazine-4-carbonyl)thiophen-2-yl)-3-(4-methyl-3-(pyridin-4-yl)phenyl)urea] as the molecule, how does the IC50 read?
Answer: < 100 nM

Question: With C#Cc1cc(NC(=O)Nc2sc(C(C)(C)C)cc2C(=O)N2CCNC(=O)C2(C)C)ccc1C [1-(5-tert-butyl-3-(2,2-dimethyl-3-oxopiperazine-1-carbonyl)thiophen-2-yl)-3-(3-ethynyl-4-methylphenyl)urea] as the molecule, how does the IC50 read?
Answer: < 100 nM

Question: With Cc1ccc(NC(=O)Nc2sc(C(C)(C)C)cc2C(=O)N2CCN(C)C(=O)C2(C)C)cc1-c1ccc(CN2CCN(C)CC2)nc1 [1-(5-tert-butyl-3-(2,2,4-trimethyl-3-oxopiperazine-1-carbonyl)thiophen-2-yl)-3-(4-methyl-3-(6-((4-methylpiperazin-1-yl)methyl)pyridin-3-yl)phenyl)urea] as the molecule, how does the IC50 read?
Answer: < 100 nM

Question: With Cc1ccc(NC(=O)Nc2cc(C(C)(C)C)sc2C(=O)N2CCN(C(C)C)C(=O)C2(C)C)cc1-c1ccc(CN2CCOCC2)nc1 [1-(5-tert-butyl-2-(4-isopropyl-2,2-dimethyl-3-oxopiperazine-1-carbonyl)thiophen-3-yl)-3-(4-methyl-3-(6-(morpholinomethyl)pyridin-3-yl)phenyl)urea] as the molecule, how does the IC50 read?
Answer: < 100 nM

Question: For CCNC(=O)c1ccc(-c2cc(NC(=O)Nc3cc(C(C)(C)C)oc3C(=O)N3CCN(C)C(=O)C3(C)C)ccc2C)cn1 [5-(5-(3-(5-tert-butyl-2-(2,2,4-trimethyl-3-oxopiperazine-1-carbonyl)furan-3-yl)ureido)-2-methylphenyl)-N-ethylpyridine-2-carboxamide], which IC50 is on record?
Answer: < 100 nM

Question: For CC(=O)c1ccc(-c2cc(NC(=O)Nc3sc(C(C)(C)C)cc3C(=O)N3CCNC(=O)C3(C)C)ccc2C)cn1 [1-(5-tert-butyl-3-(2,2-dimethyl-3-oxopiperazine-1-carbonyl)thiophen-2-yl)-3-(3-(6-ethanoylpyridin-3-yl)-4-methylphenyl)urea], which IC50 is on record?
Answer: < 100 nM

Question: How did the IC50 turn out when Cc1ccc(NC(=O)Nc2sc(C(C)(C)C)cc2C(=O)N2CCN(C)C(=O)C2(C)C)cc1-c1ccc(C(=O)N2CCOCC2)nc1 [1-(5-tert-butyl-3-(2,2,4-trimethyl-3-oxopiperazine-1-carbonyl)thiophen-2-yl)-3-(4-methyl-3-(6-(morpholine-4-carbonyl)pyridin-3-yl)phenyl)urea] was run?
Answer: < 100 nM

Question: How did the IC50 turn out when Cc1ccc(NC(=O)Nc2sc(C(C)(C)C)cc2C(=O)N2CCNC(=O)C2(C)C)cc1-c1ccncc1 [1-(5-tert-butyl-3-(2,2-dimethyl-3-oxopiperazine-1-carbonyl)thiophen-2-yl)-3-(4-methyl-3-(pyridin-4-yl)phenyl)urea] was run?
Answer: < 100 nM

Question: With Cc1ccc(NC(=O)Nc2sc(C(C)(C)C)cc2C(=O)N2CCNC(=O)C2(C)C)cc1-c1ccc(OCCCN2CCOCC2)nc1 [1-(5-tert-butyl-3-(2,2-dimethyl-3-oxopiperazine-1-carbonyl)thiophen-2-yl)-3-(4-methyl-3-(6-(3-morpholinopropoxy)pyridin-3-yl)phenyl)urea] as the molecule, how does the IC50 read?
Answer: < 100 nM

Question: For Cc1ccc(NC(=O)Nc2sc(C(C)(C)C)cc2C(=O)N2CCNC(=O)C2(C)C)cc1C#CCOCCN1CCOCC1 [1-(5-tert-butyl-3-(2,2-dimethyl-3-oxopiperazine-1-carbonyl)thiophen-2-yl)-3-(4-methyl-3-(3-(2-morpholinoethoxy)prop-1-ynyl)phenyl)urea], which IC50 is on record?
Answer: < 100 nM

Question: Which IC50 does the source give for Cc1ccc(NC(=O)Nc2sc(C(C)(C)C)cc2C(=O)N2CCN(C)C(=O)C2(C)C)cc1-c1ccc(C[N+]2([O-])CCOCC2)[n+]([O-])c1 [4-((5-(5-(3-(5-tert-butyl-3-(2,2,4-trimethyl-3-oxopiperazine-1-carbonyl)thiophen-2-yl)ureido)-2-methylphenyl)-1-oxidopyridin-2-yl)methyl)morpholine 4-oxide] here?
Answer: < 1000 nM

Question: For CCOc1ccc(-c2cc(NC(=O)Nc3sc(C(C)(C)C)cc3C(=O)N3CCN(C)C(=O)C3(C)C)ccc2C)cn1 [1-(5-tert-butyl-3-(2,2,4-trimethyl-3-oxopiperazine-1-carbonyl)thiophen-2-yl)-3-(3-(6-ethoxypyridin-3-yl)-4-methylphenyl)urea], which IC50 is on record?
Answer: < 100 nM

Question: Which IC50 does the source give for Cc1ccc(NC(=O)Nc2sc(C(C)(C)C)cc2C(=O)N2CCN(C)C(=O)C2(C)C)cc1-c1ccc(OC(C)C)nc1 [1-(5-tert-butyl-3-(2,2,4-trimethyl-3-oxopiperazine-1-carbonyl)thiophen-2-yl)-3-(3-(6-isopropoxypyridin-3-yl)-4-methylphenyl)urea] here?
Answer: < 100 nM

Question: Which IC50 does the source give for Cc1ccc(NC(=O)Nc2sc(C(C)(C)C)cc2C(=O)N2CCC(=O)N(C)CC2)cc1-c1ccc(N2CCOCC2)cn1 [1-(5-tert-butyl-3-(4-methyl-5-oxo-1,4-diazepane-1-carbonyl)thiophen-2-yl)-3-(4-methyl-3-(5-morpholinopyridin-2-yl)phenyl)urea] here?
Answer: < 100 nM

Question: Which IC50 does the source give for CCC(C)(C)c1cc(C(=O)N2CCN(C)C(=O)C2(C)C)c(NC(=O)Nc2ccc(C)c(-c3ccc(CN4CCOCC4)nc3)c2)s1 [1-(4-methyl-3-(6-(morpholinomethyl)pyridin-3-yl)phenyl)-3-(5-tert-pentyl-3-(2,2,4-trimethyl-3-oxopiperazine-1-carbonyl)thiophen-2-yl)urea] here?
Answer: < 100 nM

Question: For Cc1cc(NC(=O)Nc2cc(C(C)(C)C)sc2C(=O)N2CCNC(=O)C2(C)C)cc(-c2ccc(N3CCOCC3)cn2)c1 [1-(5-tert-butyl-2-(2,2-dimethyl-3-oxopiperazine-1-carbonyl)thiophen-3-yl)-3-(3-methyl-5-(5-morpholinopyridin-2-yl)phenyl)urea], which IC50 is on record?
Answer: < 100 nM

Question: Which IC50 does the source give for Cc1nc(-c2cccc(NC(=O)Nc3sc(C(C)(C)C)cc3C(=O)N3CCNC(=O)C3(C)C)c2)cs1 [1-(5-tert-butyl-3-(2,2-dimethyl-3-oxopiperazine-1-carbonyl)thiophen-2-yl)-3-(3-(2-methylthiazol-4-yl)phenyl)urea] here?
Answer: < 100 nM

Question: Cc1ccc(NC(=O)Nc2sc(C(C)(C)C)cc2C(=O)N2CCN(C)C(=O)C2(C)C)cc1-c1ccc(CN2CCOCC2)cn1 [1-(5-tert-butyl-3-(2,2,4-trimethyl-3-oxopiperazine-1-carbonyl)thiophen-2-yl)-3-(4-methyl-3-(5-(morpholinomethyl)pyridin-2-yl)phenyl)urea] was tested. Which IC50 did it give?
Answer: < 100 nM

Question: How did the IC50 turn out when Cc1ccc(NC(=O)Nc2sc(C(C)(C)C)cc2C(=O)N2CCNC(=O)C2(C)C)cc1-c1ccc(F)nc1 [1-(5-tert-butyl-3-(2,2-dimethyl-3-oxopiperazine-1-carbonyl)thiophen-2-yl)-3-(3-(6-fluoropyridin-3-yl)-4-methylphenyl)urea] was run?
Answer: < 100 nM

Question: How did the IC50 turn out when Cc1ccc(NC(=O)Nc2sc(C(C)(C)C)cc2C(=O)N2CCN(C)C(=O)C2(C)C)cc1-c1ccc(C(C)O)nc1 (centres unmarked) [1-(5-tert-butyl-3-(2,2,4-trimethyl-3-oxopiperazine-1-carbonyl)thiophen-2-yl)-3-(3-(6-(1-hydroxyethyl)pyridin-3-yl)-4-methylphenyl)urea] was run?
Answer: < 100 nM
